Entries after “also recorded” stand apart in the source; their conditions may differ. Where two headings read alike, the source gives them in different places.
Legend:
Assay type in all cases: cell-based
[1] = molecular target: T1, cholera toxin subunit B (CTB) (Vibrio cholerae serotype O1, UniProt P01556)
[2] = molecular target: T1, cholera toxin subunit B (CTB); test: cell-based
[3] = molecular target: T2, Aleuria aurantia lectin (AAL) (Aleuria aurantia, UniProt P18891)
T2 sequence (P18891 1-313): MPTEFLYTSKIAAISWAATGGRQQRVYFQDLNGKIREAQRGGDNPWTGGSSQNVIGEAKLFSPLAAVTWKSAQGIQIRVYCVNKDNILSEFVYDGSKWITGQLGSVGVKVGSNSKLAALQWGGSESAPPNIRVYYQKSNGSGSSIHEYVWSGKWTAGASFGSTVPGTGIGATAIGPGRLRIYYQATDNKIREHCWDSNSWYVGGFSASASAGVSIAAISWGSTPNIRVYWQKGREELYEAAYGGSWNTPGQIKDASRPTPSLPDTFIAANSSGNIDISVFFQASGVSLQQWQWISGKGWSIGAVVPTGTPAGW

[4] = molecular target: T1, cholera toxin subunit B (CTB); remark: listed apart in the source
[5] = molecular target: T2, Aleuria aurantia lectin (AAL); remark: listed apart in the source
[6] = molecular target: CTB (Vibrio cholerae serotype O1, UniProt P01556)
CTB, sequence (P01556 22-124 limits assumed): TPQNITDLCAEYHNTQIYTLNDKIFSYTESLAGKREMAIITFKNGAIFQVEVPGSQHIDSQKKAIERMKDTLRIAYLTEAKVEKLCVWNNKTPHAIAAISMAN

T1 sequence (P01556 22-124 limits assumed): as above

Molecule | Inhibition of CTB binding to Colo205 cells (in words) [2] | Inhibition of AAL binding to Colo205 cells (in words) [3] | Inhibition of CTB binding to T84 cells (in words) [4] | also measured
CC(=O)N[C@H]1C(O)O[C@H](CO)[C@@H](O[C@@H]2O[C@H](CO)[C@H](O)[C@H](O)[C@H]2O[C@@H]2O[C@@H](C)[C@@H](O)[C@@H](O)[C@@H]2O)[C@@H]1O[C@@H]1O[C@@H](C)[C@@H](O)[C@@H](O)[C@@H]1O (mixture of isomers) [LeY, Fucα2Galβ4[Fucα3]GlcNAc] | most potent blocker | more efficient; also recorded: capable of inhibiting |  | Inhibition of CTB binding to primary human jejunal epithelial cells (in words) [1]: effectively block; CTB binding, % of the no sugar control [2]: ~ 20%; AAL lectin retained bound to the cell surface [3]: ~ 15%; Inhibition of CTB binding to T84 cells, titration of inhibitor (in words) [4]: near complete inhibition
CC(=O)N[C@H]1C(O)O[C@H](CO)[C@@H](O[C@@H]2O[C@H](CO)[C@H](O)[C@H](O)[C@H]2O)[C@@H]1O (stereo partly drawn) [LacNAc, N-Acetyl-D-lactosamine] |  |  |  | Inhibition of CTB binding to primary human jejunal epithelial cells (in words) [1]: no inhibition
CC(=O)N[C@H]1C(O)O[C@H](CO)[C@@H](O[C@@H]2O[C@H](CO)[C@H](O)[C@H](O)[C@H]2O[C@@H]2O[C@@H](C)[C@@H](O)[C@@H](O)[C@@H]2O)[C@@H]1O (stereo partly shown) [H antigen, Blood group H antigen triaose type 2] |  |  |  | Reduction of CTB binding compared to the no sugar control [2]: at least 75%
C[C@H](O)[C@@H](O)[C@@H](O)[C@H](O)C=O [L-fucose, l-(−)-Fucose] |  | effectively block | dramatically suppress; also recorded: suppression of CTB binding was observed | Inhibition of AAL binding to T84 cells (in words) [5]: effectively block; CTB binding, % of the no sugar control [2]: ~ 20%; IC50 [2]: 14.5 mM
CC(=O)NC1C(O)OC(CO)C(OC2OC(CO)C(O)C(OC3OC(CO)C(O)C(O)C3O)C2OC2OC(C)C(O)C(O)C2O)C1OC1OC(C)C(O)C(O)C1O (stereo not shown) [BLeY] | failed to produce a further increase in potency; also recorded: comparable blocking activity as LeY |  |  | 
OC[C@H]1O[C@@H](O[C@H]2[C@H](O)[C@@H](O)[C@H](O)O[C@@H]2CO)[C@H](O)[C@@H](O)[C@H]1O [lactose, d-Lactose monohydrate] |  |  | did not inhibit | inhibition at 100000 µM ([2]; COLO 205, read-out: Inhibition of CTB binding): ~50%
CC(=O)N[C@H]1[C@@H](O[C@H]2[C@@H](O)[C@@H](CO)O[C@@H](O[C@H]3[C@H](O[C@@H]4O[C@@H](C)[C@@H](O)[C@@H](O)[C@@H]4O)[C@@H](NC(C)=O)C(O)O[C@@H]3CO)[C@@H]2O[C@@H]2O[C@@H](C)[C@@H](O)[C@@H](O)[C@@H]2O)O[C@H](CO)[C@H](O)[C@@H]1O (stereo partly shown) [ALeY] | failed to produce a further increase in potency; also recorded: less effectively than LeY |  |  | 
C[C@H](O)[C@@H](O)[C@@H](O)[C@H](F)C=O [2-deoxy-2-fluoro-L-fucose, 2-Deoxy-2-fluoro-L-fucose] | indistinguishable |  | indistinguishable | 
C[C@@H](O)[C@@H](O)[C@H](O)[C@@H](O)C=O [6-deoxy-D-glucose] | only minor effects | virtually no effect | no effect | Inhibition of AAL binding to T84 cells (in words) [5]: virtually no effect
C[C@H]1OC(O)[C@H](O)[C@@H](O)[C@H]1O (stereo partly drawn) [D-fucose, d-(+)-Fucose] | only minor effects | virtually no effect | only a modest effect | Inhibition of AAL binding to T84 cells (in words) [5]: virtually no effect
O=C[C@@H](O)[C@H](O)[C@H](O)[C@@H](O)CO [L-galactose, L-Galactose] | modest loss in inhibition | effective inhibitors | modest loss in inhibition | Inhibition of AAL binding to T84 cells (in words) [5]: effective inhibitors
CC(=O)NC1C(O)CC(OC2C(O)C(OC3C(CO)OC(O)C(O)C3O)OC(CO)C2OC2OC(CO)C(O)C(OC3OC(CO)C(O)C(O)C3O)C2NC(C)=O)(C(=O)O)OC1C(O)C(O)CO (stereo not shown) [GM1a(os), GM1a ganglioside sugar] |  |  |  | CTB binding, % of the no sugar control [2]: ~ 5%; Fold more potent than LeY in inhibiting CTB binding [2]: approximately 2000 fold; IC50 ([2]; read-out: IC50 against CTB binding): 0.000109 ± 3.8e-05 mM; Inhibition of CTB binding to T84 cells, titration of inhibitor (in words) [4]: could not completely inhibit CTB binding
CC(=O)N[C@H]1[C@H]([C@H](O)[C@H](O)CO)O[C@@](O[C@H]2[C@@H](O)[C@@H](CO)O[C@@H](O[C@@H]([C@H](O[C@@H]3O[C@@H](C)[C@@H](O)[C@@H](O)[C@@H]3O)[C@H](C=O)NC(C)=O)[C@H](O)CO)[C@@H]2O)(C(=O)O)C[C@@H]1O [sLeX, 3′-Sialyl Lewis X] |  |  |  | Inhibitory potential, fold less than that of LeY [2]: 2 fold; AAL lectin retained bound to the cell surface [3]: ~ 70%; Inhibition of CTB binding to T84 cells, titration of inhibitor (in words) [4]: near complete inhibition
O=C[C@@H](O)[C@H](O)[C@@H](O)[C@@H](O)CO [L-glucose] |  |  |  | Inhibition of CTB binding (in words) [6]: loss of all inhibitory activity
C[C@H](O)C[C@@H](O)[C@H](O)C=O [4-deoxy-fucose, 4-Deoxy-L-fucose] | complete loss in inhibitory potential |  | complete loss in inhibitory potential | 
COC1OC(C)C(O)C(O)C1O [methyl β-L-fucose, Methyl b-L-fucopyranoside] | significantly less |  | inhibitory activity was not observed | 
CC(=O)N[C@H]1[C@H]([C@H](O)[C@H](O)CO)O[C@@](O[C@H]2[C@@H](O)[C@@H](CO)O[C@@H](O[C@H]3[C@H](O)[C@@H](NC(C)=O)C(O)O[C@@H]3CO)[C@@H]2O)(C(=O)O)C[C@@H]1O (stereo partly shown) [3′-SLN, 3′-Sialyl-N-acetyllactosamine] | incapable of inhibiting |  |  | 
OC1OC[C@@H](O)[C@@H](O)[C@@H]1O (stereo partly drawn) [D-arabinose, d-(−)-Arabinose] | indistinguishably from the no sugar control | effective inhibitors | indistinguishably from the no sugar control | Inhibition of AAL binding to T84 cells (in words) [5]: effective inhibitors
Asialo-GM1-tetrasaccharide [GA1(os)] | significantly attenuated |  |  | Inhibition of CTB binding to T84 cells, titration of inhibitor (in words) [4]: no inhibition
C[C@@H]1OC(O)[C@@H](O)C[C@@H]1O (stereo partly drawn) [L-colitose] |  |  | significant loss in inhibitory potential | 
C[C@@H]1O[C@@H](O[C@H]2[C@H](O[C@H]3[C@H](O[C@@H]4O[C@@H](C)[C@@H](O)[C@@H](O)[C@@H]4O)[C@@H](O)C(O)O[C@@H]3CO)O[C@H](CO)[C@H](O)[C@@H]2O)[C@@H](O)[C@H](O)[C@@H]1O (stereo partly shown) [DF-L, Difucosyllactose] |  | more efficient |  | Reduction of CTB binding compared to the no sugar control [2]: at least 75%
CO[C@@H]1O[C@@H](C)[C@@H](O)[C@@H](O)[C@@H]1O [methyl α-L-fucose, Methyl a-L-fucopyranoside] | inhibited CTB binding as efficiently as L-fucose |  | suppression of CTB binding was observed | 
CC1OC(OC2C(OC3C(CO)OC(O)C(O)C3O)OC(CO)C(O)C2O)C(O)C(O)C1O (stereo not shown) [2′-FL, 2′-Fucosyllactose] | more potent inhibitor than L-fucose alone | inhibit binding | more potent inhibitor | IC50 [2]: 3 mM; Reduction of CTB binding compared to the no sugar control [2]: at least 75%; Reduction of IC50 relative to L-fucose [2]: ~ 5 fold
